Experimental data from patent US4450162A, “Pyrimidine derivatives and a pharmaceutical composition containing them” (Sankyo Company, Limited, priority 1981, dated 1984).
Where a name gives a salt, the structure may show the parent alone.

Experiments:
[1] = system: effects of d-amphetamine; experiment: Potentiation of d-Amphetamine effects; assay type: in vivo, male rats of the Wistar strain; details: 10 mg/kg orally, 60 min before d-amphetamine sulphate 2.5 mg/kg s.c.; observations 30-240 min; groups of 4 rats
Experimental: 2. Potentiation of d-Amphetamine effects
The test animals used in this experiment were male rats of the Wistar strain, each weighing from 250 to 300 g. The rats were employed in groups of 4 animals each, for each test. The test compound was employed in the form of a solution or suspension in physiological saline containing 0.3% w/v carboxymethylcellulose.
Each rat was placed in an observation cage and then given orally the solution or suspension of the test compound in an amount of 10 mg of test compound per kilogram body weight; 60 minutes later, 2.5 mg/kg of d-amphetamine sulphate were injected subcutaneously. The rats were observed 30 minutes, 60 minutes, 90 minutes, 120 minutes, 150 minutes, 180 minutes and 240 minutes after the injection of the d-amphetamine sulphate. At each observation, each animal was assigned from 0 to 5 points according to its mobility, as follows:
1 point: slight moving around;
3 points: sniffing appears;
4 points: licking appears;
5 points: biting appears.
The percentage potentiation of the effects of d-amphetamine was then calculated from the following formula: [formula] where:
P'o =total number of points from all observations of an animal to which d-amphetamine alone was administered; and
P't =total number of points from all seven observations of an animal to which both the test compound and d-amphetamine were administered.

[2] = system: reserpine-induced ptosis; experiment: Test for anti-reserpine activity (inhibition of reserpine-induced ptosis); assay type: in vivo, male mice of the ddy strain; details: Mus musculus, po, read-out: Reserpine inhibition (percentage inhibition of reserpine-induced ptosis); for inhibition in vivo at 50 mg/kg: 50 mg/kg orally, reserpine 2 mg/kg s.c., sum of observations at 90, 120 and 180 min, groups of three mice
Experimental: 1 Test for anti-reserpine activity
The test animals used were male mice of the ddy strain, each weighing 23-25 g. Each compound was tested on a group of three such mice. Each test compound was employed in the form of a solution or suspension in a physiological saline solution containing 0.3% w/v carboxymethylcellulose. The test employed was a partial modification of the method of Rubin et al. [J. Pharmacol. Exptl.
At each observation, each mouse was assigned from 0 to 3 points corresponding to the degree of ptosis, as follows:
0 points: eyes completely open;
1 point: eyes about one third closed;
2 points: eyes about two thirds closed;
3 points: eyes completely closed.
For each mouse, the number of points from all three observations were added together and the percentage inhibition of reserpine-induced ptosis was calculated from the following formula: [formula] in which:
Po =total number of points from three observations of an animal to which reserpine alone was administered; and
Pt =total number of points from three observations of an animal to which reserpine and the test compound were administered.

[3] = Acute toxicity test; assay type: in vivo, male mice of the ddy strain; details: for Mortality (deaths/animals tested): 7 days observation
Experimental: The test animals used were male mice of the ddy strain, each weighing from 21 to 25 g. To each animal was administered orally a single dose of the test compound in the amount shown in Table 2; the animals were then placed under observation for 7 days after administration. The results are reported in Table 2 as "Mortality", where the numerator indicates the number of deaths in the observation period and the denominator indicates the number of animals tested with the particular test compound at the particular dose.

[4] = Antidepressant activity (general statement); details: in vivo

| SMILES | d-Amphetamine potentiation (percentage potentiation of the effects of d-amphetamine) [1] | inhibition in vivo at 50 mg/kg [2] | other results |
| --- | --- | --- | --- |
| CCCCc1c(C)ncnc1Nc1ccc(Br)cc1 [compound 69, 4-(4-Bromoanilino)-5-n-butyl-6-methylpyrimidine] | 94% | – | – |
| c1ccc(Nc2ncnc3c2CCC3)cc1 [Compound No. 2, 4-Anilino-6,7-dihydro-5H-cyclopenta[d]pyrimidine hydrochloride] | – | 68.7% | – |
| CN(C)CCCN1c2ccccc2CCc2ccccc21 [Imipramine hydrochloride, reference compound] | 77% | 72.2% | Mortality (deaths/animals tested) ([3]; single oral dose 500 mg/kg): 3/5; Mortality: deaths on day 3 ([3]; single oral dose 500 mg/kg, on day 3): 1; Mortality: deaths within 1 hour ([3]; single oral dose 500 mg/kg, within 1 hour): 2 |
| CCc1ccc(Nc2ncnc3c2CCC3)cc1 [compound 9, 4-(4-Ethylanilino)-6,7-dihydro-5H-cyclopenta[d]pyrimidine] | – | 82.3% | – |
| Cc1ncnc(Nc2ccc(Br)cc2)c1C [Compound No. 28, 4-(4-Bromoanilino)-5,6-dimethylpyrimidine] | 79% | 61.1% | Mortality (deaths/animals tested) ([3]; single oral dose 1000 mg/kg): 0/5 |
| FC(F)(F)c1ccc(Nc2ncnc3c2CCC3)cc1 [compound 11, 4-(4-Trifluoromethylanilino)-6,7-dihydro-5H-cyclopenta[d]pyrimidine] | – | 62.5% | – |
| Cc1ncnc(Nc2ccc(C(F)(F)F)cc2)c1C [Compound No. 38, 5,6-Dimethyl-4-(4-trifluoromethylanilino)pyrimidine] | – | 68.8% | – |
| N#Cc1ccc(Nc2ncnc3c2CCC3)cc1 [Compound No. 14, 4-(4-Cyanoanilino)-6,7-dihydro-5H-cyclopenta[d]pyrimidine] | – | – | inhibition in vivo at 25 mg/kg [2]: 85% |
| Cc1ncnc(Nc2ccc(Cl)cc2)c1C [Compound No. 25, 4-(4-Chloroanilino)-5,6-dimethylpyrimidine] | 75% | 61.1% | – |
| Brc1ccc(Nc2ncnc3c2CCC3)cc1 [Compound No. 5, 4-(4-Bromoanilino)-6,7-dihydro-5H-cyclopenta[d]pyrimidine] | – | 75.6% | Mortality (deaths/animals tested) ([3]; single oral dose 500 mg/kg): 0/5; Mortality (deaths/animals tested) ([3]; single oral dose 1000 mg/kg): 0/5 |
| Cc1ncnc(Nc2ccc(I)cc2)c1C [compound 32, 4-(4-Iodoanilino)-5,6-dimethylpyrimidine] | 76% | 43.8% | – |
| Clc1ccc(Nc2ncnc3c2CCC3)cc1 [Compound No. 3, 4-(4-Chloroanilino)-6,7-dihydro-5H-cyclopenta[d]pyrimidine] | – | 82.3% | – |
| Cc1ncnc(Nc2ccccc2)c1Br [4-anilino-5-bromo-6-methylpyrimidine] | – | – | antidepressant activity [4]: no antidepressant activity |
| Cc1ncnc(Nc2ccc(C(C)C)cc2)c1C [Compound No. 47, 4-(4-Isopropylanilino)-5,6-dimethylpyrimidine] | – | 70.6% | – |
